# Measurements published in US7749984B2, “Computer-based model for identification and characterization of non-competitive inhibitors of nicotinic acetylcholine receptors and related ligand-gated ion channel receptors” (priority 2003, dated 2010).
# Read-outs that look alike come from different tables or passages of the source.
# How the values were obtained:
# α3β4 nAChR [1] = molecular target: T1, α3β4 nAChR (Rattus norvegicus, UniProt P04757+P12392); test: biochemical; type: binding; parameters: host or cells: HEK293 (KXα3β4R2); settings: for K′: chromatographic (NLC and van't Hoff); for ΔG° / ΔH° / ΔS°: chromatographic (van't Hoff)
# α3β4 nAChR [2] = molecular target: T1, α3β4 nAChR; test: Nicotine-stimulated 86Rb+ efflux assay, KXα3β4R2 cell line; type: cell-based; parameters: host or cells: HEK293 (KXα3β4R2)
# Description: After the prediction has been done based on clustering the actual values of IC50 were determined using the nicotine-stimulated ^86Rb^+ efflux assay on cell line KXα3β4R2.
# nAChR, SH-SY5Y cells = test: Rb+ efflux assay, SH-SY5Y cells; type: cell-based, human; settings: cell line SH-SY5Y
# nAChR, PC-12 cells = test: Rb+ efflux assay, PC-12 cells; type: cell-based, rat; settings: cell line PC-12
# K177 (α4β2) = K177 (α4β2) (Homo sapiens, UniProt P17787+P43681); test: Rb+ efflux assay, K177 cells
# α3β4 nAChR [3] = molecular target: T1, α3β4 nAChR; settings: nicotine concentration of ~300 μM or higher; cited from earlier work
# [4] = α3β4 nAChR, NLC, read-out: koff dissociation constant rate
# [5] = α3β4 nAChR, NLC, read-out: kon association constant rate
# [6] = α3β4 nAChR, NLC, read-out: log K chromatographic equilibrium constant (converted)
# [7] = α3β4 nAChR, 10 μM, 20 μl injected, ammonium acetate 10 mM pH 7.4/methanol 85:15
# [8] = nicotine-stimulated 86Rb+ efflux, cell line KXα3β4R2, read-out: IC50
# [9] = chromatographic (NLC), read-out: Koff
# [10] = chromatographic (NLC), read-out: Kon
# [11] = chromatographic (NLC), read-out: logKa (converted)
# [12] = IC50, nicotine stimulated Rb+ efflux
# [13] = IC50, nicotine-stimulated 86Rb+ efflux, α3β4 nAChR
# [14] = IC50 of Rb+ efflux, cell line KXα3β4R2
# [15] = IC50, nicotine-stimulated 86Rb+ efflux, cell line KXα3β4R2
# T1 sequence (P04757 26-499): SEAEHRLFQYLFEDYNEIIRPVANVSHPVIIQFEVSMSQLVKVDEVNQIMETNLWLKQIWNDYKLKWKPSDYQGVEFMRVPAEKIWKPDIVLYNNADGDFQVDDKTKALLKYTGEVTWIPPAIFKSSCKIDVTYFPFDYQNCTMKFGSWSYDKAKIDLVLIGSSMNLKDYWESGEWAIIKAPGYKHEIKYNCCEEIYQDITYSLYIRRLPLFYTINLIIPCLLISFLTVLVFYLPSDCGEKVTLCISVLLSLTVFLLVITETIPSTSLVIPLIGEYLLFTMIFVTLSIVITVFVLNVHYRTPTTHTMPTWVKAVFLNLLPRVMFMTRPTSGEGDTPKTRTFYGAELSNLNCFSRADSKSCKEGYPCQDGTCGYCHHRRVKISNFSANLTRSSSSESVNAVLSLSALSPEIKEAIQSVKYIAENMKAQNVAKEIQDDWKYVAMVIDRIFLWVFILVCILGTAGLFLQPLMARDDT
# T1 sequence (P12392 21-495): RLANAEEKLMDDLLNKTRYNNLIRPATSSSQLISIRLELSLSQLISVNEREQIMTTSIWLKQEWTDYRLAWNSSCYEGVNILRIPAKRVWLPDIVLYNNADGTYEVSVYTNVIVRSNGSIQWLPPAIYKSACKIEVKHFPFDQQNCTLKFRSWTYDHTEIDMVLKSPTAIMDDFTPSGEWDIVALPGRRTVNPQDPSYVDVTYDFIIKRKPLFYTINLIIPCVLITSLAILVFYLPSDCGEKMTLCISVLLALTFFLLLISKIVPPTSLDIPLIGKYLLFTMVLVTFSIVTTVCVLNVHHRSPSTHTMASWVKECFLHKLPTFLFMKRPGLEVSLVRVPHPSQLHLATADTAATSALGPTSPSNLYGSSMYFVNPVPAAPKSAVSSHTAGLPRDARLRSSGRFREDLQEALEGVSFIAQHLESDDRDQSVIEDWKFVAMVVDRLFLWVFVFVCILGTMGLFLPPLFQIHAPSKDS
# Sequence of K177 (α4β2) (P43681 27-627): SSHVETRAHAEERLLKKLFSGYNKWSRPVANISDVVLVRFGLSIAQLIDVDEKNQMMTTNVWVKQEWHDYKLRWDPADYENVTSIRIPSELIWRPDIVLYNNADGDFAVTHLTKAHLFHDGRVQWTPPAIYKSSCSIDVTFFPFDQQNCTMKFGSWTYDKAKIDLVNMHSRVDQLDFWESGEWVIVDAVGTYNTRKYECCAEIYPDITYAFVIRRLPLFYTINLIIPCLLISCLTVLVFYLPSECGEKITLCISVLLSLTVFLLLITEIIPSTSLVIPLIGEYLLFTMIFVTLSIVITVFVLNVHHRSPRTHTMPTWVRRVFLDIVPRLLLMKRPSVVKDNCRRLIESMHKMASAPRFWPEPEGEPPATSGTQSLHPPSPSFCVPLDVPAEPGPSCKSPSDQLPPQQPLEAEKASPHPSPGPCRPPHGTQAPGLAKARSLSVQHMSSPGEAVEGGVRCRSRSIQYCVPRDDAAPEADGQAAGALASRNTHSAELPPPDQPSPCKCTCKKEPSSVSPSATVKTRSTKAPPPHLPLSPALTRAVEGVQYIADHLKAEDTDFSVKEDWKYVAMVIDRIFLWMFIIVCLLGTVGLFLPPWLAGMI
# Sequence of K177 (α4β2) (P17787 26-502): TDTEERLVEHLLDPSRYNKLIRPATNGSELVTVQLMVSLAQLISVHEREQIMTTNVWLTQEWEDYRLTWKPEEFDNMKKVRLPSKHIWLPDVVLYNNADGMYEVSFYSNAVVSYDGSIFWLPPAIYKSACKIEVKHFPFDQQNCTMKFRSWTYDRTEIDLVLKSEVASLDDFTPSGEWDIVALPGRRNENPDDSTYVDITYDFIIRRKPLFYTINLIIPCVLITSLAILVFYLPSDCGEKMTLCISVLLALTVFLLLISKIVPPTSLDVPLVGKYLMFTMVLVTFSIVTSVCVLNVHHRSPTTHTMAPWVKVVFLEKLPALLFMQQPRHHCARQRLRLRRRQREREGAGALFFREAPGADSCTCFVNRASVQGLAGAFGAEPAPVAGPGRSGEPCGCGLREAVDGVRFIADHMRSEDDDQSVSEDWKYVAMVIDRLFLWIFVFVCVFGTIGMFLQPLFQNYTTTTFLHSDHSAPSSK
SMILES,koff (α3β4 nAChR [1]; [4]),kon (α3β4 nAChR [1]; [5]),Kd (α3β4 nAChR [1]; [6]),k′(NLC) retention capacity factor (α3β4 nAChR [1]; [7]),also measured
CC(=O)Nc1ccccc1 [acetanilide],25.5 s⁻¹,8.2e+06 M⁻¹ s⁻¹,3090 nM,5.95,
COc1ccc(CCN(C)CCCC(C#N)(c2cc(OC)c(OC)c(OC)c2)C(C)C)cc1OC (stereo not drawn) [galapamil],,,,75.93,"logk′ (α3β4 nAChR [1]; α3β4 nAChR): 1.88; koff dissociation constant rate (α3β4 nAChR [1]; α3β4 nAChR, NLC): 0.74 s⁻¹; log K chromatographic equilibrium constant (α3β4 nAChR [1]; α3β4 nAChR, NLC): 7.43 M^−1; IC50 (α3β4 nAChR [2]; [8]): 6400 nM"
COc1ccc(C(C#N)(CCCN)C(C)C)cc1OC [Compound D-620],,,,17.72,"logk′ (α3β4 nAChR [1]; α3β4 nAChR): 1.25; koff dissociation constant rate (α3β4 nAChR [1]; α3β4 nAChR, NLC): 3.43 s⁻¹; log K chromatographic equilibrium constant (α3β4 nAChR [1]; α3β4 nAChR, NLC): 6.53 M^−1; IC50 (α3β4 nAChR [2]; [8]): 48900 nM"
CC(NC(C)(C)C)C(=O)c1cccc(Cl)c1 (stereo not drawn) [bupropion],5.14 s⁻¹,2.87e+07 M⁻¹ s⁻¹,178 nM,12.97,"IC50 (nAChR, SH-SY5Y cells): 1400 nM"
CNCCN1C(=O)[C@H](OC(C)=O)[C@H](c2ccc(OC)cc2)Sc2ccccc21 [MA],,,,,logk′ (α3β4 nAChR [1]; α3β4 nAChR): 1.61; IC50 (α3β4 nAChR [2]; [8]): 4200 nM
COc1ccc2c(c1)[C@@]13CCCC[C@H]1[C@@H](C2)NCC3 [3 MM],,,,56.47,"koff dissociation constant rate (α3β4 nAChR [1]; α3β4 nAChR, NLC): 1.00 s⁻¹; log K chromatographic equilibrium constant (α3β4 nAChR [1]; α3β4 nAChR, NLC): 7.28 M^−1"
CNC1(c2ccccc2Cl)CCCCC1=O (stereo not drawn) [ketamine],8.5 s⁻¹,3.84e+07 M⁻¹ s⁻¹,224 nM,8.25,"IC50 (nAChR, SH-SY5Y cells): 1400 nM; IC50 (nAChR, PC-12 cells): 5200 nM"
"COc1ccc(CCNCCCC(C#N)(c2ccc(OC)c(OC)c2)C(C)C)cc1OC (single isomer, unassigned) [nor-verapamil-S, nor-verapamil]",,,39.8 nM,97.86,"koff dissociation constant rate (α3β4 nAChR [1]; α3β4 nAChR, NLC): 0.61 s⁻¹"
C[C@]12N[C@H](Cc3ccccc31)c1ccccc12 [MK-801],3.48 s⁻¹,2.71e+07 M⁻¹ s⁻¹,129 nM,19.10,
COc1ccc2c(c1)[C@]13CCCC[C@@H]1[C@H](C2)N(C)CC3 [dextromethorphan],1.01 s⁻¹,2.37e+07 M⁻¹ s⁻¹,42.7 nM,61.30,"difference in ΔG of the complexes (α3β4 nAChR [1]; DM vs LM, chromatographic experiments): 0.3 kcal/mol; K′ (α3β4 nAChR [1]): 61.30 (±0.27); Ka (α3β4 nAChR [1]; chromatographic (NLC)): 23.40 (±0.36) μM^−1; koff (α3β4 nAChR [1]; [9]): 1.01 s⁻¹; kon (α3β4 nAChR [1]; [10]): 2.37e+07 M⁻¹ s⁻¹; Kd (α3β4 nAChR [1]; [11]): 42.7 nM; ΔG° (α3β4 nAChR [1]): −2.33 (±0.4) kcal mol^−1; ΔH° (α3β4 nAChR [1]): −6.92 (±0.19) kcal mol^−1; ΔS° (α3β4 nAChR [1]): −15.70 (±0.7) cal mol^−1T^−1; IC50 (α3β4 nAChR [2]; [12]): 10100 nM; IC50 (α3β4 nAChR [2]; [13]): 10000 nM; IC50 (α3β4 nAChR [2]; [14]): 10100 nM"
COc1ccc(CC2c3cc(OC)c(OC)cc3CCN2C)cc1OC (stereo not drawn) [laudanosine],2.18 s⁻¹,2.5e+07 M⁻¹ s⁻¹,87.1 nM,22.87,
COc1ccc([C@@H]2Sc3ccccc3N(CCN(C)C)C(=O)[C@@H]2OC(C)=O)cc1 [dilthiazem],,,,43.53,"logk′ (α3β4 nAChR [1]; α3β4 nAChR): 1.64; koff dissociation constant rate (α3β4 nAChR [1]; α3β4 nAChR, NLC): 1.60 s⁻¹; log K chromatographic equilibrium constant (α3β4 nAChR [1]; α3β4 nAChR, NLC): 7.22 M^−1; IC50 (α3β4 nAChR [2]; cell line KXα3β4R2, read-out: IC50 of Rb+ efflux): 2260 nM; IC50 (α3β4 nAChR [2]; [8]): 2200 nM; IC50 (α3β4 nAChR [2]; nicotine-stimulated 86Rb+ efflux, α3β4 nAChR, read-out: IC50): 2300 nM"
"COc1ccc(CCNCCCC(C#N)(c2ccc(OC)c(OC)c2)C(C)C)cc1OC (single isomer, unassigned) [nor-verapamil-R, nor-verapamil]",0.58 s⁻¹,1.6e+07 M⁻¹ s⁻¹,36.3 nM,97.99,
CNCCN1C(=O)[C@H](O)[C@H](c2ccc(O)cc2)Sc2ccccc21 [Compound M6],,,,,logk′ (α3β4 nAChR [1]; α3β4 nAChR): 1.48; IC50 (α3β4 nAChR [2]; [8]): 63100 nM
NC12CC3CC(CC(C3)C1)C2 [amantadine],6.73 s⁻¹,3.08e+07 M⁻¹ s⁻¹,219 nM,8.98,
COc1ccc(CCNCCCC(C#N)(c2ccc(OC)c(OC)c2)C(C)C)cc1OC (stereo not drawn) [nor-verapamil],,,,,enantioselectivity of binding towards nicotinic affinity column (α3β4 nAChR [1]; chromatographic experiments and NLC data): did not exhibit noticeable differences between enantiomers; logk′ (α3β4 nAChR [1]; α3β4 nAChR): 1.99; IC50 (α3β4 nAChR [2]; [15]): 2600 nM; IC50 (α3β4 nAChR [2]; [13]): 2100 nM; IC50 (α3β4 nAChR [2]; [14]): 2600 nM
c1ccc(C2(N3CCCCC3)CCCCC2)cc1 [phenylcyclidine],2.69 s⁻¹,2.32e+07 M⁻¹ s⁻¹,115 nM,24.06,"IC50 (nAChR, SH-SY5Y cells): 5900 nM; IC50 (α3β4 nAChR [2]; [14]): 7000 nM"

SMILES,koff (α3β4 nAChR [1]; [4]),kon (α3β4 nAChR [1]; [5]),Kd (α3β4 nAChR [1]; [6]),k′(NLC) retention capacity factor (α3β4 nAChR [1]; [7]),also measured
CCCCC1C(=O)N(c2ccccc2)N(c2ccccc2)C1=O [phenylbutazone],22.2 s⁻¹,8.7e+06 M⁻¹ s⁻¹,2570 nM,,
"COc1ccc(C(=O)O)cc1OC [dimethoxybenzoic ac., 3,4-dimethoxybenzoic acid]",18.2 s⁻¹,9.8e+06 M⁻¹ s⁻¹,1860 nM,4.46,
CC12CC3CC(C)(C1)CC(N)(C3)C2 [memantine],3.45 s⁻¹,1.88e+07 M⁻¹ s⁻¹,182 nM,16.71,IC50 (K177 (α4β2)): 6600 nM
"O=C(O)c1ccc([N+](=O)[O-])cc1[N+](=O)[O-] [dinitrobenzoic acid, 2,4-dinitrobenzoic acid]",,,,7.77,"Kd (α3β4 nAChR [1]; log K chromatographic equilibrium constant, α3β4 nAChR, NLC): 1350 nM; koff dissociation constant rate (α3β4 nAChR [1]; α3β4 nAChR, NLC): 12.12 s⁻¹"
CNC1(C)C2CCC(C2)C1(C)C (stereo not drawn) [mecamylamine],,,,,k′(NLC) retention capacity factor (α3β4 nAChR [1]; pH 7.4): 10.89
CN(C)CCN1C(=O)[C@H](O)[C@H](c2ccc(O)cc2)Sc2ccccc21 [Compound M4],,,,,logk′ (α3β4 nAChR [1]; α3β4 nAChR): 1.45; IC50 (α3β4 nAChR [2]; [8]): 73200 nM
COC(=O)C1=C(C)NC(C)=C(C(=O)OCCN(C)Cc2ccccc2)C1c1cccc([N+](=O)[O-])c1 (stereo not drawn) [nicardapine],,,,,logk′ (α3β4 nAChR [1]; α3β4 nAChR): 2.33; IC50 (α3β4 nAChR [2]; [8]): 2500 nM
CCOC(=O)C1=C(COCCN)NC(C)=C(C(=O)OC)C1c1ccccc1Cl (stereo not drawn) [amlodipine],,,,,IC50 (α3β4 nAChR [2]; [15]): 5800 nM
CC(=O)Nc1ccc(O)cc1 [acetaminophen],17.2 s⁻¹,8.4e+06 M⁻¹ s⁻¹,2040 nM,5.30,
CN1CC[C@@]23CCCC[C@@H]2[C@@H]1Cc1ccc(O)cc13 [dextrorphan],2.3 s⁻¹,2.07e+07 M⁻¹ s⁻¹,112 nM,,
CNCCCC(C#N)(c1ccc(OC)c(OC)c1)C(C)C [Compound D-617],,,,22.22,"koff dissociation constant rate (α3β4 nAChR [1]; α3β4 nAChR, NLC): 2.72 s⁻¹; log K chromatographic equilibrium constant (α3β4 nAChR [1]; α3β4 nAChR, NLC): 6.74 M^−1"
CN1CCCC1c1cccnc1 (stereo not drawn) [nicotine],,,,,maximum 86Rb+ efflux (α3β4 nAChR [3]): ~45 % of the amount loaded
CC[n+]1c(-c2ccccc2)c2cc(N)ccc2c2ccc(N)cc21 [ethidium],0.18 s⁻¹,3.59e+07 M⁻¹ s⁻¹,5.01 nM,191.82,
CCC(=O)C(CC(C)N(C)C)(c1ccccc1)c1ccccc1 (stereo not drawn) [methadone],1.37 s⁻¹,1.59e+07 M⁻¹ s⁻¹,87.1 nM,44.45,IC50 (α3β4 nAChR [2]; [14]): 1900 nM
COc1ccc2c(c1)[C@@]13CCCC[C@H]1[C@@H](C2)N(C)CC3 [levomethorphan],1.55 s⁻¹,1.86e+07 M⁻¹ s⁻¹,83.2 nM,35.81,K′ (α3β4 nAChR [1]): 35.81 (±0.15); Ka (α3β4 nAChR [1]; chromatographic (NLC)): 12.01 (±0.23) μM^−1; koff (α3β4 nAChR [1]; [9]): 1.55 s⁻¹; kon (α3β4 nAChR [1]; [10]): 1.86e+07 M⁻¹ s⁻¹; Kd (α3β4 nAChR [1]; [11]): 83.2 nM; ΔG° (α3β4 nAChR [1]): −2.04 (±0.4) kcal mol^−1; ΔH° (α3β4 nAChR [1]): −6.59 (±0.18) kcal mol^−1; ΔS° (α3β4 nAChR [1]): −15.20 (0.6) cal mol^−1T^−1; IC50 (α3β4 nAChR [2]; [12]): 10900 nM; IC50 (α3β4 nAChR [2]; [14]): 10900 nM
CN[C@@H](C)Cc1ccccc1 [methamphetamine],6.81 s⁻¹,2.91e+07 M⁻¹ s⁻¹,234 nM,8.38,
